These results are taken from ChEMBL document CHEMBL1148642, “(2S,3S)-3-Amino-4-(3,3-difluoropyrrolidin-1-yl)-N,N-dimethyl-4-oxo-2-(4-[1,2,4]triazolo[1,5-a]-pyridin-6-ylphenyl)butanamide: a selective alpha-amino amide dipeptidyl peptidase IV inhibitor for the treatment of type 2 diabetes” (J Med Chem, 2006).

By IC50 is commonly meant the concentration that gives 50% inhibition. The bioavailability is the share of a dose that reaches the circulation, judged against a reference dose that is usually intravenous. A lower bioavailability goes with little systemic uptake. What is called Cmax is the highest concentration seen after dosing. Broadly, the AUC is concentration integrated over time. A higher AUC goes with high exposure. Usually half-life stands for how long it takes for the measured level to halve.

T1 sequence (P27487 whole entry): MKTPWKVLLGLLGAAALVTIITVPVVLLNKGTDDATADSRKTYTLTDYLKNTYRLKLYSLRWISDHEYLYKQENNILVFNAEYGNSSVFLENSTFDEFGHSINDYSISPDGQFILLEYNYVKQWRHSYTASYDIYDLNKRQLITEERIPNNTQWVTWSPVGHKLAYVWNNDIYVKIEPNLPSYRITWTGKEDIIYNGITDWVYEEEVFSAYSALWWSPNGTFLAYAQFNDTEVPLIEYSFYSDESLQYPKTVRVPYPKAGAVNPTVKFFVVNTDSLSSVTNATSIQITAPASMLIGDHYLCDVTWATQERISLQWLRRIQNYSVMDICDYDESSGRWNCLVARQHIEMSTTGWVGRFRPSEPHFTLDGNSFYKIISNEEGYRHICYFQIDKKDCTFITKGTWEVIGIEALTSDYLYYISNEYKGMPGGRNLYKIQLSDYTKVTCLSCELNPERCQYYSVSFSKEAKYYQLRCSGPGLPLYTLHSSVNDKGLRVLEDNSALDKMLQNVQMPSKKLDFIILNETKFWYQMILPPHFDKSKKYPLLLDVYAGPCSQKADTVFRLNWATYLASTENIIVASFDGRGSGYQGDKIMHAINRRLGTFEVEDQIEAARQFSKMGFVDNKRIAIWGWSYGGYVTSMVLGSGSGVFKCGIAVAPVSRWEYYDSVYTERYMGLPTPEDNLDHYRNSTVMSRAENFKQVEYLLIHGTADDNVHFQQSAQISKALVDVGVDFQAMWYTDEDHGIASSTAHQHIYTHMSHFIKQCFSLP
Dipeptidyl peptidase 9, sequence (Q86TI2 whole entry): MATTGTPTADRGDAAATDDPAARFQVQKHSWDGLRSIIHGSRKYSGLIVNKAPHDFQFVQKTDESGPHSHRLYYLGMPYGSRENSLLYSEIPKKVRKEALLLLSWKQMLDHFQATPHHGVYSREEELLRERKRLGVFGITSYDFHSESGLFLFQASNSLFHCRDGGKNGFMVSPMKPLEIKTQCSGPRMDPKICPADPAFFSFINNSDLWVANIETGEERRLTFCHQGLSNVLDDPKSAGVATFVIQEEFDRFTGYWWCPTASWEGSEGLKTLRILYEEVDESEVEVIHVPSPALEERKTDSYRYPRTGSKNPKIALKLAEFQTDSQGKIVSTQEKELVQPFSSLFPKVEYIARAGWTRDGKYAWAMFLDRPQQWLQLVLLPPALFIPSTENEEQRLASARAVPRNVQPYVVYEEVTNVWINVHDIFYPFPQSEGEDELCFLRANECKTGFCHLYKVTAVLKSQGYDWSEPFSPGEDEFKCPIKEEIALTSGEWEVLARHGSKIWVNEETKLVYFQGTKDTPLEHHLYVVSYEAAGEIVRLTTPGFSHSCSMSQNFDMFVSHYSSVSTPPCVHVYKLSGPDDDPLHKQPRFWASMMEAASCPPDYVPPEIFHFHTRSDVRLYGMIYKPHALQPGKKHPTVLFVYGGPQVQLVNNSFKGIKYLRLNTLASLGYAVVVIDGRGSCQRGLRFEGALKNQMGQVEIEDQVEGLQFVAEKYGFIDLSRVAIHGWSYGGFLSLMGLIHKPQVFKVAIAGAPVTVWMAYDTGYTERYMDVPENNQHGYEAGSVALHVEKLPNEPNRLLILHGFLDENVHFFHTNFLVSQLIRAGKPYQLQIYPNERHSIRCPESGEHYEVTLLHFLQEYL

The first data set addresses T1, Dipeptidyl peptidase 4 (Homo sapiens, UniProt P27487). Kind of data set: Inhibition of DPP4 in presence of 50% human serum.
Conditions: not given
Consider `CN(C)C(=O)[C@@H](c1ccc(-c2ccc3nncn3c2)cc1)[C@H](N)C(=O)N1CC[C@H](F)C1.O=C(O)C(F)(F)F`, for which the IC50 was 0.016 µM.

Turning to `Cc1c(-c2ccc([C@H](C(=O)N(C)C)[C@H](N)C(=O)N3CC[C@H](F)C3)cc2)ccc2ncnn12`, the IC50 turned out to be 0.061 µM.

On to `CN(C)C(=O)[C@@H](c1ccc(-c2ccc(=O)n(C)c2)cc1)[C@H](N)C(=O)N1CC[C@H](F)C1.O=C(O)C(F)(F)F`, for which the IC50 was 0.079 µM.

The next data set deals with T1, Dipeptidyl peptidase 4. Kind of data set: Inhibition of DPP4.
Conditions: not given
For the compound `CN(C)C(=O)[C@@H](c1ccc(-c2ccc3nncn3c2)cc1)[C@H](N)C(=O)N1CC[C@H](F)C1.O=C(O)C(F)(F)F`, the IC50 was found to be 0.0041 µM.

Take `Cc1c(-c2ccc([C@H](C(=O)N(C)C)[C@H](N)C(=O)N3CC[C@H](F)C3)cc2)ccc2ncnn12`: inhibition was half-maximal at 0.0086 µM (IC50).

The compound `CN(C)C(=O)[C@@H](c1ccc(-c2ccc(=O)n(C)c2)cc1)[C@H](N)C(=O)N1CC[C@H](F)C1.O=C(O)C(F)(F)F` showed an IC50 of 0.008 µM.

Tested on in a further data set: not listed separately
Kind of data set: Bioavailability in rat at 1 mg/kg, iv and 2 mg/kg, po. Type of data set: ADME, organism-based. The conditions noted are these: in vivo.
`CN(C)C(=O)[C@@H](c1ccc(-c2ccc3nncn3c2)cc1)[C@H](N)C(=O)N1CC[C@H](F)C1.O=C(O)C(F)(F)F` returned a bioavailability of 0.76%.

Take `CN(C)C(=O)[C@@H](c1ccc(-c2ccc(=O)n(C)c2)cc1)[C@H](N)C(=O)N1CC[C@H](F)C1.O=C(O)C(F)(F)F`: the bioavailability came to 2%.

Tested on in a further data set: not listed separately
Nature of the data set: Cmax in rat at 2 mg/kg, po. Details: dose 2 mg/kg, route oral. As to conditions: in vivo. It is filed as ADME, organism-based.
Regarding `CN(C)C(=O)[C@@H](c1ccc(-c2ccc3nncn3c2)cc1)[C@H](N)C(=O)N1CC[C@H](F)C1.O=C(O)C(F)(F)F`, the Cmax is 8 nM.

As to `CN(C)C(=O)[C@@H](c1ccc(-c2ccc(=O)n(C)c2)cc1)[C@H](N)C(=O)N1CC[C@H](F)C1.O=C(O)C(F)(F)F`, the Cmax was found to be 21 nM.

A further data set concerns the target Dipeptidyl peptidase 9 (Homo sapiens, UniProt Q86TI2). Kind of data set: Inhibition of DPP9.
Conditions: not given
Compound `CN(C)C(=O)[C@@H](c1ccc(-c2ccc3nncn3c2)cc1)[C@H](N)C(=O)N1CC[C@H](F)C1.O=C(O)C(F)(F)F` gave an IC50 greater than 100 µM.

`Cc1c(-c2ccc([C@H](C(=O)N(C)C)[C@H](N)C(=O)N3CC[C@H](F)C3)cc2)ccc2ncnn12` yielded a half-inhibitory concentration (IC50) greater than 100 µM.

Regarding `CN(C)C(=O)[C@@H](c1ccc(-c2ccc(=O)n(C)c2)cc1)[C@H](N)C(=O)N1CC[C@H](F)C1.O=C(O)C(F)(F)F`, the 50% inhibitory concentration (IC50) is greater than 100 µM.

Tested on in a further data set: not listed separately
Nature of the data set: Plasma clearance in rat at 1 mg/kg, iv or 2 mg/kg, po. Type of data set: ADME, organism-based.
Conditions: not given
For `CN(C)C(=O)[C@@H](c1ccc(-c2ccc3nncn3c2)cc1)[C@H](N)C(=O)N1CC[C@H](F)C1.O=C(O)C(F)(F)F`, the clearance was found to be 34 mL/min/kg.

In the case of `CN(C)C(=O)[C@@H](c1ccc(-c2ccc(=O)n(C)c2)cc1)[C@H](N)C(=O)N1CC[C@H](F)C1.O=C(O)C(F)(F)F`, the clearance was 15 mL/min/kg.

In the next data set the test system is Rattus norvegicus. Nature of the data set: AUC in rat at 2 mg/kg, po normalized to 1 mg/kg. It is filed as ADME, organism-based, Plasma. The conditions noted are these: in vivo.
In turn, `CN(C)C(=O)[C@@H](c1ccc(-c2ccc3nncn3c2)cc1)[C@H](N)C(=O)N1CC[C@H](F)C1.O=C(O)C(F)(F)F` gave an AUC of 0.009 µM·h.

For `CN(C)C(=O)[C@@H](c1ccc(-c2ccc(=O)n(C)c2)cc1)[C@H](N)C(=O)N1CC[C@H](F)C1.O=C(O)C(F)(F)F`, the AUC was 0.048 µM·h.

Tested on in the next data set: not listed separately
Kind of data set: Half life in rat at 1 mg/kg, iv or 2 mg/kg, po. As to conditions: in vivo. Type of data set: ADME, organism-based.
Compound `CN(C)C(=O)[C@@H](c1ccc(-c2ccc3nncn3c2)cc1)[C@H](N)C(=O)N1CC[C@H](F)C1.O=C(O)C(F)(F)F` showed a half-life of 1.1 h.

Regarding `CN(C)C(=O)[C@@H](c1ccc(-c2ccc(=O)n(C)c2)cc1)[C@H](N)C(=O)N1CC[C@H](F)C1.O=C(O)C(F)(F)F`, the half-life is 1.2 h.

The target in the next data set is Xaa-Pro aminopeptidase 1 (Homo sapiens, UniProt Q9NQW7). Kind of data set: Inhibition of aminopeptidase P.
Xaa-Pro aminopeptidase 1, sequence (Q9NQW7 whole entry): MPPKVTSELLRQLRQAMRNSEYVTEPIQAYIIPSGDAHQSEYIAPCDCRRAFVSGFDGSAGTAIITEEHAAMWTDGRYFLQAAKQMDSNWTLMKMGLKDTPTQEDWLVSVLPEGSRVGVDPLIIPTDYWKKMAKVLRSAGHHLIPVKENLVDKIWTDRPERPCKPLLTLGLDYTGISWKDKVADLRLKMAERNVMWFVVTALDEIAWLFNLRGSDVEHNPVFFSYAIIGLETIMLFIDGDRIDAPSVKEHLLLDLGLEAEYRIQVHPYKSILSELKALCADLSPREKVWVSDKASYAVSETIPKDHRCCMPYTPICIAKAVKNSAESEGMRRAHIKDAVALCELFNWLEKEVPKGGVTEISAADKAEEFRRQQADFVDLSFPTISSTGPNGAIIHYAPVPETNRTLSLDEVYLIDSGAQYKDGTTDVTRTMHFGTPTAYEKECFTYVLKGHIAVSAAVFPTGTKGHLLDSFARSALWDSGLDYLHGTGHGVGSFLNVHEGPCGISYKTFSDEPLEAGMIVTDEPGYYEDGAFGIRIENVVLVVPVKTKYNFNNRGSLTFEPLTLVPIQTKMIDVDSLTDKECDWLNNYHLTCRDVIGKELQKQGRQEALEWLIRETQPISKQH
Conditions: not given
For the compound `CN(C)C(=O)[C@@H](c1ccc(-c2ccc3nncn3c2)cc1)[C@H](N)C(=O)N1CC[C@H](F)C1.O=C(O)C(F)(F)F`, the IC50 is greater than 40 µM.

`Cc1c(-c2ccc([C@H](C(=O)N(C)C)[C@H](N)C(=O)N3CC[C@H](F)C3)cc2)ccc2ncnn12` returned an IC50 greater than 40 µM.

For the compound `CN(C)C(=O)[C@@H](c1ccc(-c2ccc(=O)n(C)c2)cc1)[C@H](N)C(=O)N1CC[C@H](F)C1.O=C(O)C(F)(F)F`, the IC50 is greater than 40 µM.

Another data set addresses Dipeptidyl peptidase 2 (Homo sapiens, UniProt Q9UHL4). Nature of the data set: Inhibition of QPP.
Conditions: not given
`CN(C)C(=O)[C@@H](c1ccc(-c2ccc3nncn3c2)cc1)[C@H](N)C(=O)N1CC[C@H](F)C1.O=C(O)C(F)(F)F` had a concentration for half-maximal inhibition (IC50) greater than 100 µM.

Regarding `Cc1c(-c2ccc([C@H](C(=O)N(C)C)[C@H](N)C(=O)N3CC[C@H](F)C3)cc2)ccc2ncnn12`, the IC50 is greater than 100 µM.

The compound `CN(C)C(=O)[C@@H](c1ccc(-c2ccc(=O)n(C)c2)cc1)[C@H](N)C(=O)N1CC[C@H](F)C1.O=C(O)C(F)(F)F` yielded a half-maximal inhibitory concentration (IC50) greater than 100 µM.

Another data set concerns the target T2, Xaa-Pro dipeptidase (Homo sapiens, UniProt P12955).
T2 sequence (P12955 whole entry): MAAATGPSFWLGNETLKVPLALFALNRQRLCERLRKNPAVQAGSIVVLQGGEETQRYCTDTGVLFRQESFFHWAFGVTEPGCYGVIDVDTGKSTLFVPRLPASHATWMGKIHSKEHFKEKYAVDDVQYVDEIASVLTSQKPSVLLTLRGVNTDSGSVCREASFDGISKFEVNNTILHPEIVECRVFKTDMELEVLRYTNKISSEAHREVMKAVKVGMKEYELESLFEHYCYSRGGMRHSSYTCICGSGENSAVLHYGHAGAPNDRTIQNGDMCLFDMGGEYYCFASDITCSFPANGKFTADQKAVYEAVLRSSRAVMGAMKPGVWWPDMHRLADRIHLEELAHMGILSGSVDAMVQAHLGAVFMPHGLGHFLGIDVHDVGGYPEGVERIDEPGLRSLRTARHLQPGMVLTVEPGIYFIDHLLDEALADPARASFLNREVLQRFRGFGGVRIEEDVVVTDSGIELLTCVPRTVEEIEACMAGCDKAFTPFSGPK
Nature of the data set: Inhibition of prolidase.
Conditions: not given
`CN(C)C(=O)[C@@H](c1ccc(-c2ccc3nncn3c2)cc1)[C@H](N)C(=O)N1CC[C@H](F)C1.O=C(O)C(F)(F)F` had a 50% inhibitory concentration (IC50) greater than 40 µM.

Compound `Cc1c(-c2ccc([C@H](C(=O)N(C)C)[C@H](N)C(=O)N3CC[C@H](F)C3)cc2)ccc2ncnn12` showed an IC50 greater than 40 µM.

Compound `CN(C)C(=O)[C@@H](c1ccc(-c2ccc(=O)n(C)c2)cc1)[C@H](N)C(=O)N1CC[C@H](F)C1.O=C(O)C(F)(F)F` returned an IC50 greater than 40 µM.

The next data set has as its target T3, Prolyl endopeptidase FAP (Homo sapiens, UniProt Q12884).
T3 sequence (Q12884 whole entry): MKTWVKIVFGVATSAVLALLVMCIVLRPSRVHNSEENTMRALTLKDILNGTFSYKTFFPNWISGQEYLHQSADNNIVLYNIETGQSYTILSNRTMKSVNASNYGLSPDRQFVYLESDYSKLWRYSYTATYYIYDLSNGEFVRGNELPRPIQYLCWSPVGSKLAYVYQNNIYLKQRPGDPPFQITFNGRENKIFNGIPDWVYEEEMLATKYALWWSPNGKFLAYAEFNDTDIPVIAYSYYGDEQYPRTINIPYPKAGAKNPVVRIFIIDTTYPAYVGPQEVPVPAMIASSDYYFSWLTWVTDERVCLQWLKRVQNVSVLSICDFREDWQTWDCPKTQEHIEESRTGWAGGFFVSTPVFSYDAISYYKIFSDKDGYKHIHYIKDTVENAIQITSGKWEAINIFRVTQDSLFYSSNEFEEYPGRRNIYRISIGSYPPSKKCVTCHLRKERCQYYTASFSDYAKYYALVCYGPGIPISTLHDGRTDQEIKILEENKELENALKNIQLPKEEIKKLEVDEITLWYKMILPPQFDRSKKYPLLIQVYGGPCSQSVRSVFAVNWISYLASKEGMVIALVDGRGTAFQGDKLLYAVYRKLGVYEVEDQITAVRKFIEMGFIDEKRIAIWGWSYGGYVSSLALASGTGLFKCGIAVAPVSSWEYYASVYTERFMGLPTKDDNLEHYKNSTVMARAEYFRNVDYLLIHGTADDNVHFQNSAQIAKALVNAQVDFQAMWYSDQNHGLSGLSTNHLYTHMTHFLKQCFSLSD
Nature of the data set: Inhibition of FAP.
Conditions: not given
`CN(C)C(=O)[C@@H](c1ccc(-c2ccc3nncn3c2)cc1)[C@H](N)C(=O)N1CC[C@H](F)C1.O=C(O)C(F)(F)F`: the 50% inhibitory concentration (IC50) was greater than 40 µM.

Compound `Cc1c(-c2ccc([C@H](C(=O)N(C)C)[C@H](N)C(=O)N3CC[C@H](F)C3)cc2)ccc2ncnn12` yielded an IC50 greater than 40 µM.

Regarding `CN(C)C(=O)[C@@H](c1ccc(-c2ccc(=O)n(C)c2)cc1)[C@H](N)C(=O)N1CC[C@H](F)C1.O=C(O)C(F)(F)F`, the IC50 is greater than 40 µM.

The target in a further data set is Dipeptidyl peptidase 8 (Homo sapiens, UniProt Q6V1X1). Kind of data set: Inhibition of DPP8.
Dipeptidyl peptidase 8, sequence (Q6V1X1 whole entry): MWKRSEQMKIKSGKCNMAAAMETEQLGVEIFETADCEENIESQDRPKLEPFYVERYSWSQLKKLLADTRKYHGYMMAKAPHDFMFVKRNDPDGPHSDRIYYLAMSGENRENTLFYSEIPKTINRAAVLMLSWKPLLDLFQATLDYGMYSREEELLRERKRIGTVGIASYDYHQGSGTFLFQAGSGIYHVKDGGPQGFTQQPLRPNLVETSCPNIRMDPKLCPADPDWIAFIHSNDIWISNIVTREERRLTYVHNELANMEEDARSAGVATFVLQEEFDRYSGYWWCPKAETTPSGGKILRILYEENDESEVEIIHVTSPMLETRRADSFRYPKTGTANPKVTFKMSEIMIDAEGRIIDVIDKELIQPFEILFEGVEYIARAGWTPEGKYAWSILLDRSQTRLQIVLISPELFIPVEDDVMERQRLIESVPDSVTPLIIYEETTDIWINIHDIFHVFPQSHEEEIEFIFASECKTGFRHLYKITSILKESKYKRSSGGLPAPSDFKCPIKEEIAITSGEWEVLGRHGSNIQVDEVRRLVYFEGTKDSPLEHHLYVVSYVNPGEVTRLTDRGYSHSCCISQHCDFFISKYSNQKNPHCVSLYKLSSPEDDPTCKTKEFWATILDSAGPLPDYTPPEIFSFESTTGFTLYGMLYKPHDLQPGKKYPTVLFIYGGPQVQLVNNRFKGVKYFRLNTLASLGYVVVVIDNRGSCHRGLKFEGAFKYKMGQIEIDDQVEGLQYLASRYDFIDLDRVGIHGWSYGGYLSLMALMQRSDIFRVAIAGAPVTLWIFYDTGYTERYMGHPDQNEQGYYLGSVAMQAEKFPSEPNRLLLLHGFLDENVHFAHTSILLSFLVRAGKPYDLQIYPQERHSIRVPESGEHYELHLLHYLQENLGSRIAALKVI
Conditions: not given
In turn, `CN(C)C(=O)[C@@H](c1ccc(-c2ccc3nncn3c2)cc1)[C@H](N)C(=O)N1CC[C@H](F)C1.O=C(O)C(F)(F)F` registered an IC50 greater than 100 µM.

`Cc1c(-c2ccc([C@H](C(=O)N(C)C)[C@H](N)C(=O)N3CC[C@H](F)C3)cc2)ccc2ncnn12`: the IC50 is greater than 100 µM.

The compound `CN(C)C(=O)[C@@H](c1ccc(-c2ccc(=O)n(C)c2)cc1)[C@H](N)C(=O)N1CC[C@H](F)C1.O=C(O)C(F)(F)F` returned an IC50 greater than 100 µM.
